The source made the active and inactive calls. The calls are words filed in the database; no cut-off is given here.
Key:
[1] = Cytotoxicity against human HeLa cells; assay type: toxicity, cell-based
HeLa [2] = assay: Synergistic cytotoxicity against human HeLa cells assessed as combination index at 5 uM in presence of 5 uM topotecan; assay type: functional
[3] = Cytotoxicity against human HEK293-A cells; assay type: toxicity, cell-based
[4] = molecular target: Tyrosyl-DNA phosphodiesterase 1 (Homo sapiens, UniProt Q9NUW8); assay: Inhibition of recombinant human TDP1 measured by real-time oligonucleotide biosensor assay
HeLa [5] = assay: Synergistic cytotoxicity against human HeLa cells assessed as combination index at 20 uM in presence of 5 uM topotecan; assay type: functional
HeLa [6] = assay: Cytotoxicity against human HeLa cells at 10 uM in presence of 2 to 16 uM topotecan; assay type: functional, cell-based

Chain of Tyrosyl-DNA phosphodiesterase 1 (Q9NUW8 whole entry): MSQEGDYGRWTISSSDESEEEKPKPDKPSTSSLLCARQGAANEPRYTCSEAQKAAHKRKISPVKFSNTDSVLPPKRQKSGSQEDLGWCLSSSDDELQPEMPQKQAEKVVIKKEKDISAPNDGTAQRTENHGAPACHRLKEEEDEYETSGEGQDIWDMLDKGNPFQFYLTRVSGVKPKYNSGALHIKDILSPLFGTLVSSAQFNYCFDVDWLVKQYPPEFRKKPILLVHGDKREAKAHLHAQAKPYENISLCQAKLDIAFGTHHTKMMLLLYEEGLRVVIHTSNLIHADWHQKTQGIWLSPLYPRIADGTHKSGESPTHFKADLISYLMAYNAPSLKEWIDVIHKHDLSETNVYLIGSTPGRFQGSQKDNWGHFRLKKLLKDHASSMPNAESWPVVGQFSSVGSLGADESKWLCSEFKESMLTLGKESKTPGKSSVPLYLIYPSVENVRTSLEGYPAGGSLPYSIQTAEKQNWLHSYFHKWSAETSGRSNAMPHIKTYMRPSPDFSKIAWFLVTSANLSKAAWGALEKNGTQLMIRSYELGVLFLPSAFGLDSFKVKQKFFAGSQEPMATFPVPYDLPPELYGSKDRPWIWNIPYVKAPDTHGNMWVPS

| SMILES | CC50 [1] [µM] | CI (HeLa [2]) | CC50 [3] [µM] | IC50 [4] [µM] | CI (HeLa [5]) | Activity (HeLa [6]) |
| --- | --- | --- | --- | --- | --- | --- |
| CC1=CC[C@@H](CCOc2ccc(C3SCC(=O)N3Cc3ccccc3)cc2)C1(C)C (stereo partly drawn) | 79 | 0.25 | 90 | 1.2 | 0.16 | Active |
| CC(C)=CCC/C(C)=C/COc1ccc(C2SCC(=O)N2Cc2ccccc2)cc1 (stereo not drawn) | > 100 |  | > 100 | 2.9 | 0.13 | Active |
| CC(C)=CCCC(C)CCOc1ccc(C2SCC(=O)N2Cc2ccccc2)cc1 (stereo not drawn) |  |  |  | > 100 |  |  |
| CC1(C)C2CC=C(CC3SCC(=O)N3Cc3ccccc3)C1C2 (stereo not drawn) |  |  |  | > 100 |  |  |
| CC1(C)C2CC=C(CCOc3ccc(C4SCC(=O)N4Cc4ccccc4)cc3)C1C2 (stereo not drawn) | > 100 | 0.32 | > 100 | 2.1 | 0.21 | Active |
| COc1ccc(C2SCC(=O)N2Cc2ccccc2)cc1 (stereo not drawn) |  |  |  | > 100 |  |  |
| CC(C)CCCC(C)CC1SCC(=O)N1Cc1ccccc1 (stereo not drawn) |  |  |  | > 100 |  |  |
| CC(C)=CCCC(C)CC1SCC(=O)N1Cc1ccccc1 (stereo not drawn) |  |  |  | > 100 |  |  |
| CC(=O)C1=C(O)C=C2Oc3c(-c4csc(N/N=C/CC(C)CCC=C(C)C)n4)c(O)c(C)c(O)c3[C@@]2(C)C1=O (stereo partly drawn) |  |  |  | 0.016 |  |  |
| CC(C)CCCC(C)CCOc1ccc(C2SCC(=O)N2Cc2ccccc2)cc1 (stereo not drawn) | 66 | 0.51 | > 100 | 1.2 | 0.29 | Active |
| O=C1CSC(c2ccccc2)N1Cc1ccccc1 (stereo not drawn) |  |  |  | > 100 |  |  |
| COc1cnc2c(c1)C(=O)c1c-2n(CCCNC2=NCCS2)c(=O)c2cc([N+](=O)[O-])ccc12 |  |  |  | 12 |  |  |
| CC1=CC[C@@H](CC2SCC(=O)N2Cc2ccccc2)C1(C)C (stereo partly drawn) |  |  |  | > 100 |  |  |
| CC1(C)C2CC=C(C3SCC(=O)N3Cc3ccccc3)C1C2 (stereo not drawn) |  |  |  | > 100 |  |  |
| CC1(C)C2CC=C(COc3ccc(C4SCC(=O)N4Cc4ccccc4)cc3)C1C2 (stereo not drawn) | 74 |  | 51 | 1.6 | 0.21 | Active |
